Data from US8980830B2 (priority 2007, dated 2015).
One block for each compound: values may come before it. Bridge positions count the residues as written; N and C are the ends. Square brackets hold non-standard residues; d marks the D form. Ends that are not written are not given here. Peptide text beside a SMILES is read from it. * marks the point of attachment. X1 = CC(C)CCC[C@@H](C)[C@H]1CC[C@H]2[C@@H]3CC=C4C[C@@H](OC(=O)CCOCCOCCOCCOCCOCCOCCOCCOCCOCCOCCOCCOCCNC(=O)CSCCC(=O)*)CC[C@]4(C)[C@H]3CC[C@]12C; PhLac = O=C(O)[C@@H](O)Cc1ccccc1

Key:
[1] = target: T1, Glucagon Receptor (Homo sapiens, UniProt P47871); assay: cAMP inhibition: antagonism of glucagon-induced cAMP at glucagon receptor; type: cell-based; parameters: expressed in transfected cells; host or cells: HEK293
[2] = target: GLP-1 Receptor (Homo sapiens, UniProt P43220); assay: Functional assay, cAMP induction (luciferase reporter, HEK293) at GLP-1 receptor; type: cell-based
[3] = target: T1, Glucagon Receptor; assay: Glucagon receptor binding assay (scintillation proximity competition binding)

T1 sequence (P47871 26-477): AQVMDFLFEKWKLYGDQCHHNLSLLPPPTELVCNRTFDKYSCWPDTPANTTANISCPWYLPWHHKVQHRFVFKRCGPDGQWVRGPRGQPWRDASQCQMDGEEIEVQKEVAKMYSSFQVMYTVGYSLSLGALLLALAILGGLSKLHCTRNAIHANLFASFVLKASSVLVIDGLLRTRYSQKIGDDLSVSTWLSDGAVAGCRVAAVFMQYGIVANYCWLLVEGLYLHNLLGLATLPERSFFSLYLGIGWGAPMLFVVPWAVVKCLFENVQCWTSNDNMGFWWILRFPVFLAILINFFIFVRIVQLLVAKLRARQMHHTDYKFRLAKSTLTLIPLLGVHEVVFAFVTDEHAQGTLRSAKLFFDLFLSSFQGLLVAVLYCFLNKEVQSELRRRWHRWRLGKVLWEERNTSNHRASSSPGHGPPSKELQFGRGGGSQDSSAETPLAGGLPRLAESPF
GLP-1 Receptor, sequence (P43220 24-463): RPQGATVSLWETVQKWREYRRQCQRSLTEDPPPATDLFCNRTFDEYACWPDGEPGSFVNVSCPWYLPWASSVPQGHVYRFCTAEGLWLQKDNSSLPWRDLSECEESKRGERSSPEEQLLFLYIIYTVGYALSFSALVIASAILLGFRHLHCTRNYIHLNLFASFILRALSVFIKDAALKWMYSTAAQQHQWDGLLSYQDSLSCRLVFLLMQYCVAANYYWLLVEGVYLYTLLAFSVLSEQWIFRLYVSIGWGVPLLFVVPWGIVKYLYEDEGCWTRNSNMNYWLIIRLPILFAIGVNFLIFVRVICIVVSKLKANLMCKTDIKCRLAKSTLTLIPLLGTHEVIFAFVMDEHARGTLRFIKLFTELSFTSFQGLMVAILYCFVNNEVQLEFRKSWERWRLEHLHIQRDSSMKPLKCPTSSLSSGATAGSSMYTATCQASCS

Compound: CSCC[C@H](NC(=O)[C@H](CC(C)C)NC(=O)[C@H](Cc1c[nH]c2ccccc12)NC(=O)[C@H](CCC(N)=O)NC(=O)[C@@H](NC(=O)[C@H](Cc1ccccc1)NC(=O)[C@H](CC(=O)O)NC(=O)[C@H](CCC(N)=O)NC(=O)[C@H](C)NC(=O)[C@H](CCCNC(=N)N)NC(=O)[C@H](CCCNC(=N)N)NC(=O)[C@@H]1CCC(=O)NCCCC[C@H](NC(=O)[C@H](CO)NC(=O)[C@H](Cc2ccc(O)cc2)NC(=O)[C@H](CC(=O)O)NC(=O)[C@H](CO)NC(=O)[C@@H](NC(=O)[C@@H](N)Cc2ccccc2)[C@@H](C)O)C(=O)N[C@@H](Cc2ccc(O)cc2)C(=O)N[C@@H](CC(C)C)C(=O)N[C@@H](CC(=O)O)C(=O)N1)C(C)C)C(=O)N[C@@H](CC(N)=O)C(=O)N[C@H](C(=O)NCC(=O)N1CCC[C@H]1C(=O)N[C@@H](CO)C(=O)N[C@@H](CO)C(=O)NCC(=O)N[C@@H](C)C(=O)N1CCC[C@H]1C(=O)N1CCC[C@H]1C(=O)N1CCC[C@H]1C(=O)N[C@@H](CO)C(N)=O)[C@@H](C)O [D9, K12E16(Lactam)] (H-FTSDYSKYLDERRAQDFVQWLMNTGPSSGAPPPS-NH2; lactam 7-11; N-terminus assumed)
IC50 ([1]; Table 13, glucagon antagonist activity, read-out: Glu): 828 nM
EC50 ([2]; GLP-1 (nM), Table 13, GLP-1 agonist activity): 119 nM
EC50 ([2]; GLP-1 EC50 (nM), Table 15): 18 nM

IC50 ([1]; Glucagon antagonism IC50 (nM, inhibit 0.2-0.8 nM glucagon), Table 17): 58.3 ± 3.3 nM
EC50 ([2]; GLP-1 agonism EC50 (nM), Table 17): 38.5 ± 7.6 nM
Compound: CSCC[C@H](NC(=O)[C@H](CC(C)C)NC(=O)[C@H](Cc1c[nH]c2ccccc12)NC(=O)[C@H](CCC(N)=O)NC(=O)[C@@H](NC(=O)[C@H](Cc1ccccc1)NC(=O)[C@H](CC(=O)O)NC(=O)[C@H](CCC(N)=O)NC(=O)[C@H](C)NC(=O)[C@H](CCCNC(=N)N)NC(=O)[C@H](CCCNC(=N)N)NC(=O)[C@@H]1CCC(=O)NCCCC[C@H](NC(=O)[C@H](CO)NC(=O)[C@H](Cc2ccc(O)cc2)NC(=O)[C@H](CC(=O)O)NC(=O)[C@H](CO)NC(=O)[C@@H](NC(=O)[C@@H](O)Cc2ccccc2)[C@@H](C)O)C(=O)N[C@@H](Cc2ccc(O)cc2)C(=O)N[C@@H](CC(C)C)C(=O)N[C@@H](CC(=O)O)C(=O)N1)C(C)C)C(=O)N[C@@H](CC(=O)O)C(=O)N[C@H](C(N)=O)[C@@H](C)O [[PLA6, D9, K12E16(Lactam), D28]G(6-29)] (H-[PhLac]TSDYSKYLDERRAQDFVQWLMDT-NH2; lactam 7-11)

IC50 ([3]; Table 7, average ±STD, at least three experiments): 136 ± 17.8 nM
IC50 ([3]; read-out: Receptor Binding IC50, Table 4): 136 nM
Compound: GTFTSEYSKYLDSRRAQDFVQWLMNT-NH2 [[Glu^9]Glucagon(aa4-29)-NH2]

Compound: CSCC[C@H](NC(=O)[C@H](CC(C)C)NC(=O)[C@H](Cc1c[nH]c2ccccc12)NC(=O)[C@H](CCC(N)=O)NC(=O)[C@@H](NC(=O)[C@H](Cc1ccccc1)NC(=O)[C@H](CC(=O)O)NC(=O)[C@@H]1CCCCNC(=O)CC[C@H](NC(=O)[C@H](CC(=O)O)NC(=O)[C@H](CC(C)C)NC(=O)[C@H](Cc2ccc(O)cc2)NC(=O)[C@H](CCCCN)NC(=O)[C@H](CO)NC(=O)[C@H](Cc2ccc(O)cc2)NC(=O)[C@H](CC(=O)O)NC(=O)[C@H](CO)NC(=O)[C@@H](NC(=O)[C@@H](O)Cc2ccccc2)[C@@H](C)O)C(=O)N[C@@H](CCCNC(=N)N)C(=O)N[C@@H](CCCNC(=N)N)C(=O)N[C@@H](C)C(=O)N1)C(C)C)C(=O)N[C@@H](CC(=O)O)C(=O)N[C@H](C(=O)NCC(=O)N1CCC[C@H]1C(=O)N[C@@H](CO)C(=O)N[C@@H](CO)C(=O)NCC(=O)N[C@@H](C)C(=O)N1CCC[C@H]1C(=O)N1CCC[C@H]1C(=O)N1CCC[C@H]1C(=O)N[C@@H](CO)C(=O)N[C@@H](CCCCNC(=O)CCSCC(=O)NCCOCCOCCOCCOCCOCCOCCOCCOCCOCCOCCOCCOCCC(=O)O[C@H]1CC[C@@]2(C)C(=CC[C@H]3[C@@H]4CC[C@H]([C@H](C)CCCC(C)C)[C@@]4(C)CC[C@@H]32)C1)C(N)=O)[C@@H](C)O [K40-chol G(6-40), [PLA6, E16K20(lactam), D28, K40(COCH2CH2S-Chol)]G(6-40) amide] (H-[PhLac]TSDYSKYLDERRAKDFVQWLMDTGPSSGAPPPSK(X1)-NH2; lactam 11-15)
IC50 ([1]; Glucagon antagonism IC50 (nM, inhibit 0.4 nM glucagon), Table 23, standard deviation in ( )): 312 nM
EC50 ([2]; GLP-1 agonism EC50 (nM), Table 23, standard deviation in ( )): 47 nM
